The text below walks through data of patent US10542754B2, “Synergistic effect of spinetoram and methoxyfenozide for control of stem borer on rice” (Dow AgroSciences LLC, priority 2014, dated 2020).

In this series the test system is striped stem borer (SSB). Nature of the series: Laboratory bioassay, rice stem dipping method, against striped stem borer on rice. The settings on record: for Numbers of Dead SSB: four replicates. The source says: Cotoxicity Coefficient (CTC) value was used to determine an existence of synergic effect between spinetoram and methoxyfenozide in the formulated pesticidal composition.
The CTC value of the formulated composition was used to determine the biological responses to the treatment: additive, synergism, or antagonism. The CTC value of more than 120 indicates a synergistic effect between the combined pesticidal compounds. The CTC value of about 80 to 120 indicates an additive effect between the combined pesticidal compounds. The CTC value of less than 80 indicates antagonistic effect between the combined pesticidal compounds
Pesticidal compositions were prepared by thoroughly mixing spinetoram and methoxyfenozide at various weight ratios as shown in TABLE 3.
The effectiveness of the pesticidal compositions for controlling of striped stem borer on rice was determined using laboratory bioassays, and compared to those of three controls. In the first control, only spinetoram was used for the treatment. In the second control, only methoxyfenozide was used for the treatment. In the third control, no pesticide was used.
The rice stem dipping method based on Standard Method for Bioassay Test (Chinese Standard Method NY/T1154.4-2006: Continuous Immersion Test for Insecticide Systemic Activity) was used to conduct the laboratory bioassays.
Five stems of rice were dipped into the solutions of pestidical compositions for 10 seconds and then taken out for drying in the air. The treated stems were placed into glass tubes. Treatment with water, solvent, and emulsifier alone was used as reference check. There were four replicates for each treatment. About 10±1 larvae of third-instar striped stem borer were placed into each glass tube. The openings of the tubes were covered with gauze. Laboratory bioassays were conducted at room temperature. The number of dead larvae was recorded at 72 hours following the treatment.

The mark [1] stands for this setting: Chilo suppressalis, in Oryza sativa, 72 h.

In the case of `COc1cccc(C(=O)NN(C(=O)c2cc(C)cc(C)c2)C(C)(C)C)c1C` [Methoxyfenozide, methoxyfenozide], under setting [1], the LC50 was determined as 21.1 µg/mL, the mortality at 2.5 µg/mL is 4.77%, the mortality at 5 µg/mL turned out to be 13.6% and the mortality at 10 µg/mL was 28.4%. Under setting [1], the mortality at 20 µg/mL was found to be 43.9%, the mortality at 40 µg/mL came out at 67.5% and the mortality at 80 µg/mL stood at 87.5%. Also, under “mass concentration 2.5 mg/L, 72 hours”, the “Numbers of Dead SSB” value came to 0.5. For the setting “mass concentration 5 mg/L, 72 hours”, the “Numbers of Dead SSB” value was found to be 1.5. Further, the “Numbers of Dead SSB” value (mass concentration 10 mg/L, 72 hours) worked out at 3. In addition, the “Numbers of Dead SSB” value (mass concentration 20 mg/L, 72 hours) turned out to be 7. In addition, the “Numbers of Dead SSB” value (mass concentration 40 mg/L, 72 hours) was found to be 6.75. For the same molecule, under “mass concentration 80 mg/L, 72 hours”, the “Numbers of Dead SSB” value is reported as 8.75. Further, for the setting “third-instar larvae, 72 hours”, the LC90 stood at 107.74 µg/mL.

For spinetoram, the “Numbers of Dead SSB” value is listed as 0.5 (mass concentration 0.125 mg/L, 72 hours); 2 (mass concentration 0.25 mg/L, 72 hours); 4 (mass concentration 0.5 mg/L, 72 hours); 6.75 (mass concentration 1 mg/L, 72 hours); 8.5 (mass concentration 2 mg/L, 72 hours); 9.75 (mass concentration 4 mg/L, 72 hours). In addition, the “Mortality (%)” value (mass concentration 0.125 mg/L, third-instar larvae, 72 hours) was found to be 4.55%; the “Mortality (%)” value (mass concentration 0.25 mg/L, third-instar larvae, 72 hours) is 18.41%; the “Mortality (%)” value (mass concentration 0.5 mg/L, third-instar larvae, 72 hours) amounted to 37.73%; the “Mortality (%)” value (mass concentration 1 mg/L, third-instar larvae, 72 hours) was 64.09%; the “Mortality (%)” value (mass concentration 2 mg/L, third-instar larvae, 72 hours) is 81.14%; the “Mortality (%)” value (mass concentration 4 mg/L, third-instar larvae, 72 hours) was found to be 95.23%. Also, under “third-instar larvae, 72 hours”, the LC50 came out at 0.71 µg/mL. Besides, the LC90 (third-instar larvae, 72 hours) came out at 2.76 µg/mL.

For orientation: LC50 means the concentration lethal to half of the exposed cells or organisms. Broadly, the mortality is the share of the test organisms that died.
